Reference: patent publication US20170362283A1, “NISIN-BASED COMPOUNDS AND USE THEREOF IN THE TREATMENT OF BACTERIAL INFECTIONS” (UNIVERSITEIT UTRECHT HOLDING B.V., priority 2015, published 2017)
≈ marks a conversion by molar mass, not a printed value.

Assays:
Conditions in all cases: duplicate experiments
MRSA USA300 = format: cell-based, Staphylococcus aureus
Procedure: (§1) Determining the MIC value is a standard technique well known to the skilled person, in particular the MIC value can be measured using method M07-A9 (CLSI standard, January 2012, Vol. 32, No. 2, “Methods for Dilution Antimicrobial Susceptibility Tests for Bacteria That Grow Aerobically”).
(§2) Different microorganisms (from glycerol stock) were plated out on blood agar and incubated at 37° C. for 24 hours. A colony was selected and 2×5 mL of TSB was inoculated. The samples and a sterile control were cultured for 16-20 hours at 37° C. Comparative compound B is nisin acting as a control. Comparative compound C is vancomycin, also acting as a control. Comparative compounds A, D and E are also control compounds not part of the present invention.
(§3) The overnight cultures were diluted to 0.5×10^6 CFU in TSB. 50 μL of the bacterial solution was added to each well and the plates were sealed with an adhesive membrane and incubated at 37° C. for 16 hours. The next day, the plates were visually inspected for bacterial growth.

B. subtilis = system: B. subtilis
Procedure: as §1
as §2, with “Comparative compound C is vancomycin, also acting as a control.” left out
as §3

S. aureus = system: S. aureus
Procedure: as §1
as §2, with “Comparative compound C is vancomycin, also acting as a control.” left out
as §3

E. coli = system: E. coli
Procedure: as §1
as §2, with “Comparative compound C is vancomycin, also acting as a control.” left out
as §3

VRE 155 = format: cell-based
Procedure: as §1, §2, §3

SMILES | MIC values MRSA USA300 (MRSA USA300) | MIC values B. subtilis (B. subtilis) | MIC values S. aureus (S. aureus) | MIC values E. coli (E. coli) | MIC values VRE 155 (VRE 155)
C=C1NC(=O)[C@H]([C@@H](C)CC)NC(=O)[C@H](NC(=O)C(=CC)NC(=O)[C@@H](N)[C@@H](C)CC)CSC[C@@H](C(=O)N[C@H]2C(=O)N3CCC[C@H]3C(=O)NCC(=O)N[C@H](C(=O)N[C@@H](CCCCN)C(=O)NCCCCCCC)CS[C@H]2C)NC(=O)[C@H](CC(C)C)NC1=O [(3)] | 64 µg/mL (≈ 51.3 µM) | 16 µg/mL (≈ 12.8 µM) | 64 µg/mL (≈ 51.3 µM) | >64 µg/mL | 8 µg/mL (≈ 6.41 µM)
C=C1NC(=O)[C@H]([C@@H](C)CC)NC(=O)[C@H](NC(=O)C(=CC)NC(=O)[C@@H](N)[C@@H](C)CC)CSC[C@@H](C(=O)N[C@H]2C(=O)N3CCC[C@H]3C(=O)NCC(=O)N[C@H](C(=O)N[C@@H](CCCCN)C(=O)NCCCCCCCC)CS[C@H]2C)NC(=O)[C@H](CC(C)C)NC1=O [(4)] | 64 µg/mL (≈ 50.7 µM) |  |  |  | 16 µg/mL (≈ 12.7 µM)
C=C1NC(=O)[C@H]([C@@H](C)CC)NC(=O)[C@H](NC(=O)C(=CC)NC(=O)[C@@H](N)[C@@H](C)CC)CSC[C@@H](C(=O)N[C@H]2C(=O)N3CCC[C@H]3C(=O)NCC(=O)N[C@H](C(=O)N[C@@H](CCCCN)C(=O)NCCCCCCCCC)CS[C@H]2C)NC(=O)[C@H](CC(C)C)NC1=O [(5)] | 32 µg/mL (≈ 25.1 µM) | 8 µg/mL (≈ 6.27 µM) | 16 µg/mL (≈ 12.5 µM) | 64 µg/mL (≈ 50.2 µM) | 8 to 16 µg/mL
C=C1NC(=O)[C@H]([C@@H](C)CC)NC(=O)[C@H](NC(=O)C(=CC)NC(=O)[C@@H](N)[C@@H](C)CC)CSC[C@@H](C(=O)N[C@H]2C(=O)N3CCC[C@H]3C(=O)NCC(=O)N[C@H](C(=O)N[C@@H](CCCCN)C(=O)NCCCCCCCCCCC)CS[C@H]2C)NC(=O)[C@H](CC(C)C)NC1=O [(7)] | 16 µg/mL (≈ 12.3 µM) | 4 µg/mL (≈ 3.07 µM) | 8 µg/mL (≈ 6.14 µM) | >64 µg/mL | 4 µg/mL (≈ 3.07 µM)
C=C1NC(=O)[C@H]([C@@H](C)CC)NC(=O)[C@H](NC(=O)C(=CC)NC(=O)[C@@H](N)[C@@H](C)CC)CSC[C@@H](C(=O)N[C@H]2C(=O)N3CCC[C@H]3C(=O)NCC(=O)N[C@H](C(=O)N[C@@H](CCCCN)C(=O)NCCCCCCCCCCCC)CS[C@H]2C)NC(=O)[C@H](CC(C)C)NC1=O [(8)] | 4 µg/mL (≈ 3.04 µM) | 4 µg/mL (≈ 3.04 µM) | 4 to 8 µg/mL | >64 µg/mL | 2 µg/mL (≈ 1.52 µM)
C=C1NC(=O)[C@H]([C@@H](C)CC)NC(=O)[C@H](NC(=O)C(=CC)NC(=O)[C@@H](N)[C@@H](C)CC)CSC[C@@H](C(=O)N[C@H]2C(=O)N3CCC[C@H]3C(=O)NCC(=O)N[C@H](C(=O)N[C@@H](CCCCN)C(=O)NCCCCCCCCCCCCC)CS[C@H]2C)NC(=O)[C@H](CC(C)C)NC1=O [(9)] | 4 µg/mL (≈ 3 µM) | 4 µg/mL (≈ 3 µM) | 8 µg/mL (≈ 6.01 µM) | >64 µg/mL | 2 µg/mL (≈ 1.5 µM)
C=C1NC(=O)[C@H]([C@@H](C)CC)NC(=O)[C@H](NC(=O)C(=CC)NC(=O)[C@@H](N)[C@@H](C)CC)CSC[C@@H](C(=O)N[C@H]2C(=O)N3CCC[C@H]3C(=O)NCC(=O)N[C@H](C(=O)N[C@@H](CCCCN)C(=O)NCCCCCCCCCCCCCCC)CS[C@H]2C)NC(=O)[C@H](CC(C)C)NC1=O [(11)] | 64 µg/mL (≈ 47.1 µM) | 8 µg/mL (≈ 5.88 µM) | 32 µg/mL (≈ 23.5 µM) | >64 µg/mL | 8 µg/mL (≈ 5.88 µM)
C=C1NC(=O)[C@H]([C@@H](C)CC)NC(=O)[C@H](NC(=O)C(=CC)NC(=O)[C@@H](N)[C@@H](C)CC)CSC[C@@H](C(=O)N[C@H]2C(=O)N3CCC[C@H]3C(=O)NCC(=O)N[C@H](C(=O)N[C@@H](CCCCN)C(=O)NCc3ccc(-c4ccc(Cl)cc4)cc3)CS[C@H]2C)NC(=O)[C@H](CC(C)C)NC1=O [(13)] | 8 µg/mL (≈ 5.93 µM) | 2 to 4 µg/mL |  |  | 4 µg/mL (≈ 2.96 µM)
C=C1NC(=O)[C@H]([C@@H](C)CC)NC(=O)[C@H](NC(=O)C(=CC)NC(=O)[C@@H](N)[C@@H](C)CC)CSC[C@@H](C(=O)N[C@H]2C(=O)N3CCC[C@H]3C(=O)NCC(=O)N[C@H](C(=O)N[C@@H](CCCCN)C(=O)NCCC[N+](C)(C)CCCCCCCCCC)CS[C@H]2C)NC(=O)[C@H](CC(C)C)NC1=O [(14)] | 8 µg/mL | 4 µg/mL | 4 µg/mL | >64 µg/mL | 4 µg/mL
C=C1NC(=O)[C@H]([C@@H](C)CC)NC(=O)[C@H](NC(=O)C(=CC)NC(=O)[C@@H](N)[C@@H](C)CC)CSC[C@@H](C(=O)N[C@H]2C(=O)N3CCC[C@H]3C(=O)NCC(=O)N[C@H](C(=O)N[C@@H](CCCCN)C(=O)N[C@@H](Cc3c[nH]c4ccccc34)C(=O)NCCCCCCCCCC)CS[C@H]2C)NC(=O)[C@H](CC(C)C)NC1=O [(15)] | 8 µg/mL (≈ 5.42 µM) | 4 µg/mL (≈ 2.71 µM) | 8 µg/mL (≈ 5.42 µM) | >64 µg/mL | 2 µg/mL (≈ 1.36 µM)
C=C1NC(=O)[C@H]([C@@H](C)CC)NC(=O)[C@H](NC(=O)C(=CC)NC(=O)[C@@H](N)[C@@H](C)CC)CSC[C@@H](C(=O)N[C@H]2C(=O)N3CCC[C@H]3C(=O)NCC(=O)N[C@H](C(=O)N[C@@H](CCCCN)C(=O)N[C@@H](Cc3ccccc3)C(=O)NCCCCCCCCCC)CS[C@H]2C)NC(=O)[C@H](CC(C)C)NC1=O [(16)] | 8 µg/mL (≈ 5.57 µM) | 4 µg/mL (≈ 2.78 µM) | 8 µg/mL (≈ 5.57 µM) | >64 µg/mL | 2 µg/mL (≈ 1.39 µM)
C=C1NC(=O)[C@H]([C@@H](C)CC)NC(=O)[C@H](NC(=O)C(=CC)NC(=O)[C@@H](N)[C@@H](C)CC)CSC[C@@H](C(=O)N[C@H]2C(=O)N3CCC[C@H]3C(=O)NCC(=O)N[C@H](C(=O)N[C@@H](CCCCN)C(=O)N[C@@H](Cc3c[nH]cn3)C(=O)NCCCCCCCCCC)CS[C@H]2C)NC(=O)[C@H](CC(C)C)NC1=O [(17)] | 8 µg/mL (≈ 5.61 µM) |  |  |  | 4 µg/mL (≈ 2.8 µM)
C=C1NC(=O)[C@H]([C@@H](C)CC)NC(=O)[C@H](NC(=O)C(=CC)NC(=O)[C@@H](N)[C@@H](C)CC)CSC[C@@H](C(=O)N[C@H]2C(=O)N3CCC[C@H]3C(=O)NCC(=O)N[C@H](C(=O)N[C@@H](CCCCN)C(=O)N[C@@H](Cc3ccc(O)cc3)C(=O)NCCCCCCCCCC)CS[C@H]2C)NC(=O)[C@H](CC(C)C)NC1=O [(18)] | 8 µg/mL (≈ 5.51 µM) | 4 µg/mL (≈ 2.75 µM) | 4 to 8 µg/mL | >64 µg/mL | 2 µg/mL (≈ 1.38 µM)
C=C1NC(=O)[C@H]([C@@H](C)CC)NC(=O)[C@H](NC(=O)C(=CC)NC(=O)[C@@H](N)[C@@H](C)CC)CSC[C@@H](C(=O)N[C@H]2C(=O)N3CCC[C@H]3C(=O)NCC(=O)N[C@H](C(=O)N[C@@H](CCCCNC(=O)CCCCCCCC)C(=O)NC)CS[C@H]2C)NC(=O)[C@H](CC(C)C)NC1=O [(19)] | 32 µg/mL (≈ 24.5 µM) |  |  |  | 8 µg/mL (≈ 6.14 µM)
C=C1NC(=O)[C@H]([C@@H](C)CC)NC(=O)[C@H](NC(=O)C(=CC)NC(=O)[C@@H](N)[C@@H](C)CC)CSC[C@@H](C(=O)N[C@H]2C(=O)N3CCC[C@H]3C(=O)NCC(=O)N[C@H](C(=O)N[C@@H](CCCCNC(=O)CCN)C(=O)NCCCCCCCCCCCC)CS[C@H]2C)NC(=O)[C@H](CC(C)C)NC1=O [(21)] | 8 µg/mL (≈ 5.76 µM) |  |  |  | 4 µg/mL (≈ 2.88 µM)
C=C1NC(=O)[C@H]([C@@H](C)CC)NC(=O)[C@H](NC(=O)C(=CC)NC(=O)[C@@H](NC(=O)CCN)[C@@H](C)CC)CSC[C@@H](C(=O)N[C@H]2C(=O)N3CCC[C@H]3C(=O)NCC(=O)N[C@H](C(=O)N[C@@H](CCCCNC(=O)CCN)C(=O)NCCCCCCCCCCCC)CS[C@H]2C)NC(=O)[C@H](CC(C)C)NC1=O [(22)] | 16 µg/mL (≈ 11 µM) |  |  |  | 8 µg/mL (≈ 5.48 µM)
C=C1NC(=O)[C@H]([C@@H](C)CC)NC(=O)[C@H](NC(=O)C(=CC)NC(=O)[C@@H](N)[C@@H](C)CC)CSC[C@@H](C(=O)N[C@H]2C(=O)N3CCC[C@H]3C(=O)NCC(=O)N[C@H](C(=O)N[C@@H](CCCCN)C(=O)NC)CS[C@H]2C)NC(=O)[C@H](CC(C)C)NC1=O [D, reference compound] |  | >128 µg/mL | >128 µg/mL | >128 µg/mL | 
C=C1NC(=O)[C@H]([C@@H](C)CC)NC(=O)[C@H](NC(=O)C(=CC)NC(=O)[C@@H](N)[C@@H](C)CC)CSC[C@@H](C(=O)N[C@H]2C(=O)N3CCC[C@H]3C(=O)NCC(=O)N[C@H](C(=O)N[C@@H](CCCCN)C(=O)NCCCN=[N+]=[N-])CS[C@H]2C)NC(=O)[C@H](CC(C)C)NC1=O [E, Nisin [1-12]-azide, reference compound] |  | >128 µg/mL | >128 µg/mL | >128 µg/mL | 
